According to US8003669B2, “Remedy for sleep disturbance” (Mitsubishi Tanabe Pharma Corporation, priority 2002, dated 2011):

Key:
human ORL-1 receptor = human ORL-1 receptor (Homo sapiens, UniProt P41146); experiment: Agonist action: inhibition of forskolin-stimulated cAMP elevation in HEK293 cells; assay type: cell-based; details: HEK293 cells expressing human ORL-1 receptor, forskolin 1 μmol/L
ORL-1 receptor = target: T1, ORL-1 receptor (Rattus norvegicus, UniProt P35370); experiment: ORL-1 receptor binding test ([3H]-nociceptin); details: receptor prepared from cerebral cortex of rat
T1 construct: a standard product of the receptor prepared from cerebral cortex of rat; from tissue; host or cells: rat cerebral cortex

rats = experiment: Antagonistic action of the ORL-1 receptor antagonist on the phase advancement by the ORL-1 receptor agonist; assay type: in vivo, rat; details: constant dark, oral

T1 sequence (P35370 whole entry): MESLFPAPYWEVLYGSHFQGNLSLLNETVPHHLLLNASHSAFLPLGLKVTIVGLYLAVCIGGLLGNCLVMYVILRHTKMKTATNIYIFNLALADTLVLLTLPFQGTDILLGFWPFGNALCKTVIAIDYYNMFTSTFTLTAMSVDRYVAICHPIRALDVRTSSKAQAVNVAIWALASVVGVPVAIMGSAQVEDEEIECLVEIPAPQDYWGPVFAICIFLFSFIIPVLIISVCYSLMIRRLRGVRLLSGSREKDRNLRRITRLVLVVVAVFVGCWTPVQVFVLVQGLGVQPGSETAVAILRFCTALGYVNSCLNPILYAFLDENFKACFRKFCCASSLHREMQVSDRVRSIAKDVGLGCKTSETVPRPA
Sequence of human ORL-1 receptor (P41146 whole entry): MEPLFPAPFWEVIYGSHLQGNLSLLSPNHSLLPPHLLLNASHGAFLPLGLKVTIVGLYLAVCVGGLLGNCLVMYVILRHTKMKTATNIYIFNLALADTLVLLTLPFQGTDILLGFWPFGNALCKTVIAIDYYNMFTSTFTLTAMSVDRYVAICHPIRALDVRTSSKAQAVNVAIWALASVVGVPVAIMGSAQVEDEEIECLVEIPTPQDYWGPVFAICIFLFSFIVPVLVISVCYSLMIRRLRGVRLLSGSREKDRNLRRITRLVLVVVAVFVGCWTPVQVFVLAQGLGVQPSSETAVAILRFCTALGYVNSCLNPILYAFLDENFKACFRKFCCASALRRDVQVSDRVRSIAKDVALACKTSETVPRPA

CCc1ccc(OCc2ccccc2C(=O)Nc2ccc3nc(C)cc(N)c3c2)cc1.Cl [compound D, N-(4-amino-2-methylquinolin-6-yl)-2-(4-ethylphenoxymethyl)benzamide hydrochloride]
inhibition of cAMP production (ORL-1 receptor agonistic activity) (human ORL-1 receptor): did not inhibit cAMP production
IC50 (ORL-1 receptor; 25° C., 20 minutes, read-out: IC50 value, inhibition of the binding of [3H]-nociceptin): 500 nM
Ki (ORL-1 receptor; Ki=IC50/(1+L/Kd), read-out: Ki value, inhibition of the binding of [3H]-nociceptin): 60.6 nM
phase shift for the ORL-1 receptor antagonist alone (rats): no phase shift was observed
